Reference: US20100022481A1, “Drug Carriers, Their Synthesis, and Methods of Use Thereof” (priority 2006, published 2010)
Blank lines part the entries; values can stand above or below the compound they belong to.

What was measured:
[1] = Binding potential of ALN-CD on HA; settings: rhodamine B label; 10 minutes with HA at room temperature, washed with H2O 5-10 times
Description: 20 mg rhodamine B labeled ALN-CD or CD and 1 mg rhodamine B were dissolved in 0.5 ml water separately, and 100 mg of hydroxyapatite (HA) was added. The mixture was then allowed to stir gently for 10 minutes at room temperature. HA was recovered by centrifugation (10,000 rpm, 2 minutes), then washed with H2O 5-10 times to remove unbound compounds. The HA was allowed to dry under vacuum at room temperature.

rat mandible = test: Bilateral rat mandible model, bone growth and inflammation, histomorphometry; type: in vivo, Female Sprague Dawley rats; settings: for New Bone Area (mm^2 ± SEM) / New Bone Width-1 (mm ± SEM) / New Bone Width-3 (mm ± SEM): Table 1, pairs tested on contralateral sides; for new bone growth / bone anabolic effect (in words): one injection at rat mandible
[2] = Phase solubility of dexamethasone or PGE1 in the presence of ALN-CD
[3] = one injection, contralateral sides, 24 days
[4] = 50 μl of 400 mg/mL ALN-CD or 50 μl of 81 mg/ml ALN

color of HA after washings (binding to the HA surface) [1]: disappeared
Compound: CCN(CC)c1ccc2c(-c3ccccc3C(=O)O)c3ccc(=[N+](CC)CC)cc-3oc2c1.[Cl-] [rhodamine B]

Compound: hydroxypropyl(HP)-β-CD [HP-β-CD]
New Bone Area (mm^2 ± SEM) (rat mandible; 24 days): 0.25 ± 0.08 mm^2
New Bone Width-1 (mm ± SEM) (rat mandible; 24 days): 0.05 ± 0.02 mm
New Bone Width-3 (mm ± SEM) (rat mandible; 24 days): 0.19 ± 0.11 mm
increase in new bone width (rat mandible; [3]): 0.07±0.10 mm
percentage of osteoblasts on the lateral periosteal surface (rat mandible; [3]): 7.3%

aqueous solubility as a function of the concentration of ALN-CD ([2]; ALN-CD 0 to 10 mM, 25° C., 3 days): increases
apparent 1:1 stability constant Kc ([2]; complex with ALN-CD, water, 25° C.): 2570 M⁻¹
solubility diagram type according to Higuchi and Connors ([2]; with ALN-CD): AL type
Compound: C[C@@H]1C[C@H]2[C@@H]3CCC4=CC(=O)C=C[C@]4(C)[C@@]3(F)[C@@H](O)C[C@]2(C)[C@@]1(O)C(=O)CO [dexamethasone]

Compound: CCCCC[C@H](O)/C=C/[C@H]1[C@H](O)CC(=O)[C@@H]1CCCCCCC(=O)O [PGE1, prostaglandin E1]
new bone growth / bone anabolic effect (in words) (rat mandible; 24 days): negligible

Compound: NCCCC(O)(P(=O)(O)O)P(=O)(O)O [alendronate]
cases with new bone on distant areas of the mandible (e.g., the medial surface) (rat mandible; [4]): 8 of 8
cases with new bone on the lateral surface of the mandible (location of injection) (rat mandible; [4]): 5 of 8
New Bone Area (mm^2 ± SEM) (rat mandible; 24 days): 0.61 ± 0.12 mm^2
New Bone Width-1 (mm ± SEM) (rat mandible; 24 days): 0.14 ± 0.05 mm
New Bone Width-3 (mm ± SEM) (rat mandible; 24 days): 0.24 ± 0.11 mm
new bone area (rat mandible; equivalent amounts of ALN: 50 μl of 400 mg/mL ALN-CD or 50 μl of 81 mg/ml ALN): 0.61 ± 0.12 mm^2
new bone growth / bone anabolic effect (in words) (rat mandible; 24 days): moderate bone anabolic effect
